Read-outs that look alike come from different tables or passages of the source.

What is called solubility is how much of the substance goes into solution per volume.

One series in a line: Solubility. Particulars: for Solubility in solvents: organic solvents, water; for solubility: read-out: Solubility: amount dissolved in 1.0 mL. The class given is physicochemical.
A short description of another series: Stability. The class given is physicochemical. How it is done: The compound should be kept at -20° C. under Argon.
The conditions of series [1]: models of aging; cited from earlier work.
For series [2] the following is noted: animal models, clinical trials; cited from earlier work.
The conditions of series [3]: cited from earlier work.
For the next series, the system named is rat brain. In words: Infarct volume after MCA occlusion of rat brain (triphenyltetrazolium chloride staining). In kind it is in vivo. Particulars: 50 mg/kg i.p. at three hours after initiation of the stroke event; n=5. How it is done:
Two sets of experiments were carried out. In the first set, rats were administered with 50 mg/kg of DHA-choline i.p. at 30 minutes prior to occlusion of the middle cerebral artery of the left side of the brain using a standard highly reproducible animal model of stroke (Karpiak et al., J. Neurosci Res.30:512-520, 1991). Occlusion of the middle cerebral artery inhibits blood flow to a major portion of the left cortical and subcortical regions of the brain. After a two hour period, the occluded blood vessel was opened to allow reperfusion of the brain, and anesthesia was terminated. Each animal received additional doses of 50 mg/kg of DHA-choline 24 and 48 hours later.
The animals were sacrificed, perfused with formalin fixative, brains were sliced into seven 2 mm thick coronal sections, and stained with triphenyltetrazolium chloride (Watson et al., J. Neurosci. Methods 53:203-208, 1994). In this test, tissue that contains intact mitochondria stains red, whereas dead tissue with damaged mitochondria picks up no stain and remains white. Each unstained area on the left side of a section was measured and compared to the total area of the control non-occluded right side of the same section of the brain. The area of damaged (white) brain tissue cells was calculated as a percent of the intact right side of a section. […] (n=5 per group.) […]

The test system of series [4] is locomotor activity of mice. The series is described as follows: Locomotor activity study (dose-response of DHA-choline-induced locomotor depression). In kind it is in vivo, male Swiss-Webster mice (Hsd:ND4). Particulars: 20 min pretreatment. How it is done: A dose-response study of DHA-choline-induced locomotor depression was conducted using 40 Digiscan locomotor activity testing chambers (40.5×40.5×30.5 cm) housed in sets of two, within sound attenuating chambers. A panel of infrared beams (16 beams) and corresponding photo detectors were located in the horizontal direction along the sides of each activity chamber. A 7.5W incandescent light above each chamber provided dim illumination. Fans provided an 80-dB ambient noise level within the chamber. Separate groups of 8 non-habituated male Swiss-Webster mice (Hsd:ND4, aged 2-3 mo.) were injected via the intraperitoneal route (i.p.) with either vehicle or DHA-choline (0.5, 2.5, 5, 10, 20 or 40 mg/kg), 20 minutes prior to locomotor activity testing. In all studies, the total distance (cm traversed in the horizontal plane) was measured for 2 hours within 10 min periods.
The figures show the dose response data for the locomotor activity (Stewart et al., Psychopharmacol 60:281, 1979) of mice injected with different doses of the compound. The figures show average distance per 10 min as a function of time (FIG. 1) and dose (FIG. 2) 20 minutes following DHA-choline pretreatment. The period 0-30 min was selected for analysis of dose-response data because this is the time period in which DHA-choline produced maximal effects. […]

As for `CC/C=C\C/C=C\C/C=C\C/C=C\C/C=C\C/C=C\CCC(=O)OCCN(C)C` [2-dimethylaminoethyl docosahexaenoate], the Solubility in solvents result in “Solubility” is on record as “soluble in EtOAc, Et2 O, CH2 C2, CHCl3, EtOH insoluble in H2 O”. Moreover, the “Stability in air (appearance)” value in the series “Stability” (exposed in the air for several days) is “turns dark when exposed in the air for several days”.
Take `C[N+](C)(C)CCOP(=O)(O)OP(=O)([O-])OC[C@H]1O[C@@H](n2ccc(N)nc2=O)[C@H](O)[C@@H]1O` [CDP-choline, Cytidine 5'-diphosphocholine]: in series [1], the “effect on memory and learning deficits” value was “improves memory and learning deficits”. In addition, in series [2], the neuroprotective effect entry is “neuroprotective effect”.
For the molecule `CC/C=C\C/C=C\C/C=C\C/C=C\C/C=C\C/C=C\CCC(=O)O` [DHA, cis-docosahexaenoic acid], in series [3], the “stability in the presence of oxygen” value is listed as “can be unstable in the presence of oxygen”.
`CC/C=C\C/C=C\C/C=C\C/C=C\C/C=C\C/C=C\CCC(=O)OCC[N+](C)(C)C` [DHA-choline, Docosahexaenoyl Choline Iodide]: the solubility in the series “Solubility” (1.0 mL ascorbic acid in saline with 0.02 mL detergent) was determined as 5500 µg/mL; in the series “Solubility” (10% albumin saline with detergent, 1.0 mL 10% albumin in saline with 0.01 mL detergent), 7800 µg/mL. The Solubility in solvents result in “Solubility” is listed as “soluble in CH2 Cl2, CHCl3, EtOAc, EtOH insoluble in hexanes, Et2 O”. The “infarct volume relative to vehicle controls” value with rat brain is given as “approximately 50%”. Moreover, the ED50 in series [4] (Mus musculus, ip, 0-30 min period, maximal depressant activity = 0 cm/30 min, read-out: ID50 dose producing 1/2 maximal depressant activity (locomotor activity)) amounted to 12.9 mg/kg. Besides, the “time period of maximal effects” value in series [4] (i.p.) lay in the range of 0 to 30 min. In “Stability” (exposed in the air for 5 days), the “Stability in air (1H NMR analysis)” value is reported as “had not decomposed”. In addition, the “Stability on long exposure to air” value in the series “Stability” (exposed in the air for too long) was “will decompose”.

(Values after US5977174A, “Cholinergic compositions and uses thereof” (Neuromedica, Inc., priority 1997, dated 1999).)
